The values that follow come from patent US20110166121A1 (LG LIFE SCIENCES LTD., priority 2008, published 2011).

By IC50 is commonly meant the point on the concentration scale where inhibition reaches its midpoint. As a reminder, the Ki is a dissociation constant, usually derived from enzyme kinetics or from competition with a known ligand.

The target in one assay is T1, Human P2Y12 receptor (Homo sapiens, UniProt Q9H244).
T1 construct: expressed in transfected cells; host or cells: HEK cells
Nature of the assay: Human P2Y12 receptor cell membrane binding assay with [3H] 2-Mes-ADP. To be noted: 1 nM [3H] 2-Mes-ADP, membranes of HEK cells expressing P2Y12 receptor; read-out: Binding activity (IC50). The essentials: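 Membranes from HEK cells expressing human P2Y12 were incubated with compound and 1 nM [3H]2-MeS-ADP for 1 h at room temperature. Bound radioactivity was collected by GF/B filtration.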

Assay [1] has as its system Human platelet aggregation caused by ADP. Briefly: Inhibition of ADP-induced platelet aggregation (Mimic-human PRP). The format is cell-based. To be noted: 20 μM ADP, human platelet concentrate diluted with PPP, absorption at 595 nm. The essentials:
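Human PRP diluted with PPP to 3–4×10^8 platelets/mL was preincubated 20 min at room temperature with compound (0.01–30 μM, DMSO), then stimulated with 20 μM ADP. Aggregation read as A595 increase at 3 min versus 0 and 20 μM ADP controls; Ki from sigmoidal non-linear regression.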

T1 sequence (Q9H244 whole entry): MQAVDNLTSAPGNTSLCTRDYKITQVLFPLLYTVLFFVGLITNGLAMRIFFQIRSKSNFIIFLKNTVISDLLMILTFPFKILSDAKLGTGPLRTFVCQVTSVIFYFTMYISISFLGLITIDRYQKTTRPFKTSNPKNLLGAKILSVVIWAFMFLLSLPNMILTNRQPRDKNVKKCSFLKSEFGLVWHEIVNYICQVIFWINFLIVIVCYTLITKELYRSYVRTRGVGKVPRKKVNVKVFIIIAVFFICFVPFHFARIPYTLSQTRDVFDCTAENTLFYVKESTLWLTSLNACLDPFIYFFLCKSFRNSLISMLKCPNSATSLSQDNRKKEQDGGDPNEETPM

For the compound `CCCc1cc2c(N3CCn4c(nnc4C(F)(F)F)C3)nc(C(=O)N3CCN(C)CC3)nc2s1` [Example 4-13, (4-Methyl-piperazin-1-yl)-[6-propyl-4-(3-trifluoromethyl-5,6-dihydro-8H-[1,2,4]triazolo[4,3-a]pyrazin-7-yl)thieno[2,3-d]pyrimidin-2-yl]methanone], at Human P2Y12 receptor, the IC50 turned out to be 4.92 µM. Besides, the Ki in assay [1] is 1.8 µM.

As to `CCCc1cc2c(N3CCn4c(nnc4C(F)(F)F)C3)nc(C(=O)N3CCCC(C(=O)OCC)C3)nc2s1` (stereo not drawn) [Example 4-14, 1-[6-Propyl-4-(3-trifluoromethyl-5,6-dihydro-8H-[1,2,4]triazolo[4,3-a]pyrazin-7-yl)thieno[2,3-d]pyrimidine-2-carbonyl]piperidine-3-carboxylic acid ethyl ester], the IC50 at Human P2Y12 receptor was determined as 1.29 µM. This compound displayed a Ki in assay [1] of 0.46 µM.

With `CCCc1cc2c(N3CCn4c(nnc4C(F)(F)F)C3)nc(C(=O)N3CCCC(C(=O)O)C3)nc2s1` (stereo not drawn) [Example 4-15, 1-[6-Propyl-4-(3-trifluoromethyl-5,6-dihydro-8H-[1,2,4]triazolo[4,3-a]pyrazin-7-yl)thieno[2,3-d]pyrimidine-2-carbonyl]piperidine-3-carboxylic acid], the IC50 on Human P2Y12 receptor was 0.63 µM. For the same compound, the Ki in assay [1] came out at 0.69 µM.

As for `CCCc1cc2c(N3CCn4c(nnc4C(F)(F)F)C3)nc(C(=O)Nc3ccccc3)nc2s1` [Example 4-16, 6-Propyl-4-(3-trifluoromethyl-5,6-dihydro-8H-[1,2,4]triazolo[4,3-a]pyrazin-7-yl)-thieno[2,3-d]pyrimidine-2-carboxylic acid phenylamide], the IC50 at Human P2Y12 receptor is 0.65 µM. Further, in assay [1], the Ki is greater than 4 µM.

Take `CCCc1cc2c(N3CCn4c(nnc4C(F)(F)F)C3)nc(C(=O)NCc3ccccc3)nc2s1` [Example 4-17, 6-Propyl-4-(3-trifluoromethyl-5,6-dihydro-8H-[1,2,4]triazolo[4,3-a]pyrazin-7-yl)thieno[2,3-d]pyrimidine-2-carboxylic acid benzylamide]: at Human P2Y12 receptor, the IC50 came out at 0.21 µM. This compound displayed a Ki in assay [1] of 1.6 µM.

Consider `CCc1cc2c(N3CCn4c(nnc4C(F)(F)F)C3)nc(CO)nc2s1` [Example 4-18, [6-Ethyl-4-(3-trifluoromethyl-5,6-dihydro-8H-[1,2,4]triazolo[4,3-a]pyrazin-7-yl)thieno[2,3-d]pyrimidin-2-yl]methanol], for which, on Human P2Y12 receptor, the IC50 amounted to 1.53 µM. The compound further had a Ki in assay [1] of 1.6 µM.

Take `CCCc1cc2c(N3CCn4c(nnc4C(F)(F)F)C3)nc(CO)nc2s1` [Example 4-19, [6-Propyl-4-(3-trifluoromethyl-5,6-dihydro-8H-[1,2,4]triazolo[4,3-a]pyrazin-7-yl)-thieno[2,3-d]pyrimidin-2-yl]methanol]: the IC50 on Human P2Y12 receptor came out at 0.5 µM. The Ki in assay [1] was 0.25 µM.

As to `CCCc1cc2c(N3CCn4c(nnc4C(F)(F)F)C3)nc(CN3CC[C@@H](O)C3)nc2s1` [Example 4-21, (R)-1-[6-Propyl-4-(3-trifluoromethyl-5,6-dihydro-8H-[1,2,4]triazolo[4,3-a]pyrazin-7-yl)thieno[2,3-d]pyrimidin-2-ylmethyl]pyrrolidin-3-ol], the IC50 at Human P2Y12 receptor worked out at 1.11 µM. The Ki in assay [1] was 0.14 µM.

As to `CCCc1cc2c(N3CCn4c(nnc4C(F)(F)F)C3)nc(COC(=O)c3ccccc3)nc2s1` [Example 4-22, Benzoic Acid 6-propyl-4-(3-trifluoromethyl-5,6-dihydro-8H-[1,2,4]triazolo[4,3-a]pyrazin-7-yl)thieno[2,3-d]pyrimidin-2-ylmethyl ester], the IC50 at Human P2Y12 receptor came to 0.85 µM. In assay [1], this compound registered a Ki of 1.6 µM.

Consider `CCCc1cc2c(N3CCn4c(nnc4C(F)(F)F)C3)nc(COc3ccccc3)nc2s1` [Example 4-23, 7-(2-Phenoxymethyl-6-propyl-thieno[2,3-d]pyrimidin-4-yl)-3-trifluoromethyl-5,6,7,8-tetrahydro-[1,2,4]triazolo[4,3-a]pyrazine], for which the IC50 at Human P2Y12 receptor came to 0.42 µM. In assay [1], this compound showed a Ki of 6.85 µM.

Consider `CCCc1cc2c(N3CCn4c(nnc4C(F)(F)F)C3)nc(COc3ccccc3C(=O)OC)nc2s1` [Example 4-24, 2-[6-Propyl-4-(3-trifluoromethyl-5,6-dihydro-8H-[1,2,4]triazolo[4,3-a]pyrazin-7-yl)thieno[2,3-d]pyrimidin-2-ylmethoxy]benzoic acid methyl ester], for which the IC50 at Human P2Y12 receptor came out at 0.7 µM. Also, the affinity in assay [1] corresponds to a Ki of 8.1 µM.

Turning to `CCCc1cc2c(N3CCn4c(nnc4C(F)(F)F)C3)nc(COc3ccccc3C(=O)O)nc2s1` [Example 4-25, 2-[6-Propyl-4-(3-trifluoromethyl-5,6-dihydro-8H-[1,2,4]triazolo[4,3-a]pyrazin-7-yl)thieno[2,3-d]pyrimidin-2-ylmethoxy]benzoic acid], at Human P2Y12 receptor, the IC50 came out at 0.353 µM. This compound came in with a Ki in assay [1] of 1.9 µM.

`CCCc1cc2c(N3CCn4c(nnc4C(F)(F)F)C3)nc(COc3cccc(C(=O)O)c3)nc2s1` [Example 4-26, 3-[6-Propyl-4-(3-trifluoromethyl-5,6-dihydro-8H-[1,2,4]triazolo[4,3-a]pyrazin-7-yl)thieno[2,3-d]pyrimidin-2-ylmethoxy]benzoic acid]: the IC50 on Human P2Y12 receptor is 0.16 µM. For the same compound, in assay [1], the Ki turned out to be 2.1 µM.

Consider `CCCc1cc2c(N3CCn4c(nnc4C(F)(F)F)C3)nc(-c3nc(CC)no3)nc2s1` [Example 4-27, 7-[2-(3-Ethyl-[1,2,4]oxadiazol-5-yl)-6-propyl-thieno[2,3-d]pyrimidin-4-yl]-3-trifluoromethyl-5,6,7,8-tetrahydro-[1,2,4]triazolo[4,3-a]pyrazine], for which the IC50 at Human P2Y12 receptor is 0.13 µM. In assay [1], this compound had a Ki of 1.5 µM.

As to `CCCc1cc2c(N3CCn4c(nnc4C(F)(F)F)C3)nc(-c3nc(-c4ccccc4)no3)nc2s1` [Example 4-28, 7-[2-(3-Phenyl-[1,2,4]oxadiazol-5-yl)-6-propyl-thieno[2,3-d]pyrimidin-4-yl)-3-trifluoromethyl-5,6,7,8-tetrahydro-[1,2,4]triazolo[4,3-a]pyrazine], the IC50 at Human P2Y12 receptor came to 0.33 µM. Besides, the Ki in assay [1] came to 0.67 µM.

`CCCc1cc2c(N3CCn4c(nnc4C(F)(F)F)C3)nc(-c3nc(CCOC)no3)nc2s1` [Example 4-29, 7-{2-[3-(2-Methoxy-ethyl)-[1,2,4]oxadiazol-5-yl]-6-propyl-thieno[2,3-d]pyrimidin-4-yl}-3-trifluoromethyl-5,6,7,8-tetrahydro-[1,2,4]triazolo[4,3-a]pyrazine]: the IC50 at Human P2Y12 receptor turned out to be 0.33 µM. The Ki in assay [1] is 0.48 µM.

Turning to `CCCc1cc2c(N3CCn4c(nnc4C(F)(F)F)C3)nc(-c3nc(CCO)no3)nc2s1` [Example 4-30, 2-{5-[6-Propyl-4-(3-trifluoromethyl-5,6-dihydro-8H-[1,2,4]triazolo[4,3-a]pyrazin-7-yl)thieno[2,3-d]pyrimidin-2-yl]-[1,2,4]oxadiazol-3-yl}ethanol], the IC50 on Human P2Y12 receptor came out at 6.5 µM. In assay [1], this compound gave a Ki of 0.83 µM.

`CCCc1cc2c(N3CCn4c(nnc4C(F)(F)F)C3)nc(-c3nc(CC(OC)OC)no3)nc2s1` [Example 4-31, 7-{2-[3-(2,2-Dimethoxy-ethyl)-[1,2,4]oxadiazol-5-yl]-6-propyl-thieno[2,3-d]pyrimidin-4-yl}-3-trifluoromethyl-5,6,7,8-tetrahydro-[1,2,4]triazolo[4,3-a]pyrazine]: the IC50 at Human P2Y12 receptor stood at 0.42 µM. Further, the Ki in assay [1] is greater than 4 µM.

Turning to `CCCc1cc2c(N3CCn4c(nnc4C(F)(F)F)C3)nc(-c3nnc(C)o3)nc2s1` [Example 4-32, 7-[2-(5-Methyl-[1,3,4]oxadiazol-2-yl)-6-propyl-thieno[2,3-d]pyrimidin-4-yl]-3-trifluoromethyl-5,6,7,8-tetrahydro-[1,2,4]triazolo[4,3-a]pyrazine], the IC50 on Human P2Y12 receptor came out at 0.23 µM. Also, the Ki in assay [1] was 0.15 µM.

Consider `CCCc1cc2c(N3CCn4c(nnc4C(F)(F)F)C3)nc(-c3nnc(-c4ccccc4)o3)nc2s1` [Example 4-33, 7-[2-(5-Phenyl-[1,3,4]oxadiazol-2-yl)-6-propyl-thieno[2,3-d]pyrimidin-4-yl]-3-trifluoromethyl-5,6,7,8-tetrahydro-[1,2,4]triazolo[4,3-a]pyrazine], for which the IC50 on Human P2Y12 receptor was found to be 0.075 µM. The compound also yielded a Ki in assay [1] of 0.1 µM.

Turning to `CCCc1cc2c(N3CCn4c(nnc4C(F)(F)F)C3)nc(-c3nnc(CC#N)o3)nc2s1` [Example 4-34, {5-[6-Propyl-4-(3-trifluoromethyl-5,6-dihydro-8H-[1,2,4]triazolo[4,3-a]pyrazin-7-yl)thieno[2,3-d]pyrimidin-2-yl]-[1,3,4]oxadiazol-2-yl}acetonitrile], the IC50 at Human P2Y12 receptor was 0.068 µM. Besides, the affinity in assay [1], expressed as Ki, was 0.013 µM.

For the compound `CCCc1cc2c(N3CCn4c(nnc4C(F)(F)F)C3)nc(-c3nnc(COC)o3)nc2s1` [Example 4-35, 7-[2-(5-Methoxymethyl-[1,3,4]oxadiazol-2-yl)-6-propyl-thieno[2,3-d]pyrimidin-4-yl]-3-trifluoromethyl-5,6,7,8-tetrahydro-[1,2,4]triazolo[4,3-a]pyrazine], the IC50 at Human P2Y12 receptor was 0.13 µM. The compound also registered a Ki in assay [1] of 0.03 µM.

As for `CCCc1cc2c(N3CCn4c(nnc4C(F)(F)F)C3)nc(-c3nnc(CO)o3)nc2s1` [Example 4-36, {5-[6-Propyl-4-(3-trifluoromethyl-5,6-dihydro-8H-[1,2,4]triazolo[4,3-a]pyrazin-7-yl)thieno[2,3-d]pyrimidin-2-yl]-[1,3,4]oxadiazol-2-yl}methanol], the IC50 at Human P2Y12 receptor is 0.25 µM. In assay [1], the affinity, expressed as Ki, was 0.3 µM.

For `CCCc1cc2c(N3CCn4c(nnc4C(F)(F)F)C3)nc(-c3nnc(CCOC)o3)nc2s1` [Example 4-37, 7-{2-[5-(2-Methoxyethyl)-[1,3,4]oxadiazol-2-yl]-6-propyl-thieno[2,3-d]pyrimidin-4-yl}-3-trifluoromethyl-5,6,7,8-tetrahydro-[1,2,4]triazolo[4,3-a]pyrazine], the IC50 on Human P2Y12 receptor turned out to be 0.192 µM. In addition, in assay [1], the affinity, expressed as Ki, was 0.25 µM.
